# What was measured:
# [1] = comparison; oral, rats; cited from earlier work
# [2] = test system: inflammation of mice ears caused by calcium ionophore (A-23187); assay: Reduction of A-23187-induced ear inflammation (edema and erythema), Examples 4-7, each animal its own control; assay type: in vivo, male outbred hairless mice; conditions: for reduction of inflammation (reference anti-inflammatories): topical, 30 minutes after application of A-23187; for anti-inflammatory activity (in words): at the concentration used (1.5 micromole topical)
# From the text: In a group of 5 male outbred hairless mice, inflammation is induced on their ears by the topical application thereto of 4.0 nmole in acetone solution (total volume 10 microliter) of the known divalent calcium ionophore (antibiotic A-23187), which is derived from Streptomyces chartreusis and is a member of a known class of compounds showing ionophoric activity. See, e.g. Pressman, B. C., "Biological Applications of Ionophores", Ann. Rev. Biochem., 45, 501, 1976. […] See Marks, F., Furstenberger, G., and Kownatzki, E., "Prostaglandin E-mediated Mitogenic Stimulation of Mouse Epidermis in vivo by divalent cation ionophore A-23187 and by tumor promoter 12-O-tetradecanoyl phorbol-13-acetate, Cancer Res., 41, 696, 1981.
# In each animal only one ear is treated, the other untreated ear serving as a control.
# In Examples 4, 5 and 6 the compounds AN-10, APCF3-8 and AMCF3-8, respectively, are topically applied to the treated ears of different groups of five male outbred hairless mice 30 minutes following the topical application thereto of the ionophore A-23187. Specifically, 1.5 micromole of the amido compound in acetone solution (total volume 10 microliters) is applied topically to treated male outbred hairless mice ears 30 min. after topical application thereto of a calcium ionophore (A-23187, 4.0 nmole total volume to 10 microliter) in acetone. As already noted, in each case, each animal serves as its own control in that only one ear is subjected to said test regime while the other ear is left untouched. Erythema and edema are assessed 4 hrs. after application of the ionophore. In Control Example 7, 3,4',5-tribromosalicylanilide (TBS) is applied in the same manner.
# mice backs (skin) = conditions: topical application to mice backs, in vivo tumor promotion studies; cited from earlier work
# [3] = test system: inflammation of mice ears caused by antibiotic A-23187; assay: Reduction of A-23187-induced ear edema by ear weights, Examples 8-14; assay type: in vivo, hairless outbred mice (Skh:hr-1 strain); conditions: for Reduction in Edema (%), Study B: Day 2, 1.5 micromole per 10 microliter, A-23187 (4 nmole), sacrifice from 4 hours; for antiinflammatory activity (in words): under the test conditions of Table 2
# From the text: (§1) Acute inflammation is induced by the application of 4 nano mole of the antibiotic A-23187 to the ears of young, male, adult hairless outbred mice (Skh:hr-1 strain). Thereafter, one of the compounds AN-10, AMCF3-8, ACBXE-9, acryloyl AN-10, S-4-F and SAN-6 is applied to the affected ears and the degree of reduction in edema (inflammation) noted.
# The method used in the subject Examples differs from the method used in the preceding Examples (4 through 7) in two respects.
# Secondly, in the expression of the data, the objective parameter of ear weights is used as the sole data source (for the reduction of edema) as erythematous responses are not recorded. Ear weights are determined by sacrificing the animals four hours after initial application of the antibiotic A-23187 or other control material by the use of CO2 gas. Thereafter, the ears are excised by cutting along the characteristic ridge readily discernible along the inner aspect of the ears. Wet and dry ear weights are used to determine the extent of the edema or inflammation present.
# In Study A, 28 test animals are randomized into four treatment groups of seven each and subjected to the following ear treatment regimen:
# Each animal is dosed with a treatment consisting of a 10 microliter quantity of the assigned test material solution (or pure acetone in the case of the animals of Group D) applied to the outer aspect of both ears, i.e., 10 microliter of test material per ear. The concentrations of the respective materials in acetone solution are such that a 10 microliter dose of a solution of the antibiotic A-23187 contains 4 nano mole of such antibiotic. The corresponding quantity in the case of the AN-10 in acetone solution is 1.5 micromole. The animals of Groups A and B are initially treated with the acetone solution of A-23187. In the case of the animals of Group B alone, 10 microliter of the acetone solution of AN-10 is applied to the affected ears 1/2 hour after the application of the above-mentioned quantity of a solution in acetone of the antibiotic A-23187. The animals of Group C receive a 10 microliter dose per ear of the AN-10 in acetone solution alone. The animals of Group D receive a dose of 10 microliter per ear of pure acetone. All the test subjects are sacrificed four hours after the application of A-23187 to the animals of Groups A and B or the other test materials in the case of the animals of Groups C and D. The results are summarized in Table 2 noted below.
# (§2) A second group of studies (Study B) is conducted on two consecutive days with two sets of mice (totalling 80 animals) received from the same shipment.
# On Day 2, using the second set of 40 mice, sub-divided into 8 groups of 5 each, the six compounds in question are applied as acetone solutions in the manner described under Study A to mice ears inflamed with A-23187 again, as described in Study A above. As with the studies conducted on Day 1, the remaining two groups of 5 animals each serve as controls and their ears are dosed with A-23187 and acetone respectively.
# (§3) The amount of each salicylamide compound applied is kept constant, for Days 1 and 2, at 1.5 micromole per 10 microliter of test solution. Sacrifice begins four hours after application A-23187, on both days, and the results are recorded. Table 2 summarizes the results of the regimen of testing involved with each one of the 30 animals in question on Day 2 with the remaining 10 animals serving as controls as already noted.
# untreated mice ears = assay: Inflammatory potential on untreated mice ears (Study B, Day 1); assay type: in vivo, hairless outbred mice (Skh:hr-1 strain); conditions: 1.5 micromole per 10 microliter on untreated ears
# Method: as §1, §2
# The first batch of 40 animals is divided into 8 groups of 5 each. […] The remaining two groups of 5 animals each serve as controls and their ears are dosed with A-23187 and acetone respectively.
# as §3
# [4] = single dose oral route, Osborne-Mendel white rats, sixteen females; cited from earlier work
# [5] = 1.5 micromole topical, 30 min after A-23187 (4.0 nmole), assessed 4 hrs after ionophore
Structure (SMILES),anti-inflammatory activity (in words) [2],"Reduction in Edema (%), Study B ([3]; ear weights) [%]",antiinflammatory activity (in words) [3],noticeable inflammation (inflammatory potential) (untreated mice ears),other results
"CC(=O)Oc1ccccc1C(=O)O [aspirin, acetylsalicylic acid]",,,,,LD50 (comparable toxicity of aspirin) [1]: about 1.75 g/kg. body weight
C[C@]12CCC(=O)C=C1CC[C@@H]1[C@@H]2[C@@H](O)C[C@@]2(C)[C@H]1CC[C@]2(O)C(=O)CO [hydrocortisone],,,,,reduction of inflammation (reference anti-inflammatories) [2]: reduction of inflammation
"O=C(Nc1ccc(Br)cc1)c1cc(Br)cc(Br)c1O [TBS, 3,4',5-tribromosalicylanilide]",essentially inactive,,,,"Reduction in Edema (%) [2, 5]: 12%; Reduction in Erythema (%) [2, 5]: 35%"
CNc1ccc2oc(C[C@H]3O[C@@]4(CC[C@H]3C)O[C@H]([C@H](C)C(=O)c3ccc[nH]3)[C@H](C)C[C@H]4C)nc2c1C(=O)O [A-23187],,,,,"acute inflammation on treated ears after topical A-23187 ([2]; within 4 hours following topical application, time and dose dependent): Acute inflammation develops; skin irritation (mice backs (skin)): potent ability to cause skin irritation"
CCCCCCCCC(=O)c1ccc(O)c(C(=O)Nc2cccc(C(=O)OCC)c2)c1 [ACBXE-9],,76,significant antiinflammatory activity,none of the six compounds being tested cause any noticeable inflammation,
CCCCCCc1ccc(O)c(C(=O)Nc2ccc([N+](=O)[O-])cc2)c1 [SAN-6],,59,significant antiinflammatory activity,none of the six compounds being tested cause any noticeable inflammation,
CCCCCCCC(=O)c1ccc(O)c(C(=O)Nc2cccc(C(F)(F)F)c2)c1 [AMCF3-8],effective anti-inflammatories,81,significant antiinflammatory activity,none of the six compounds being tested cause any noticeable inflammation,
C=CC(=O)Oc1ccc(C(=O)CCCCCCCCC)cc1C(=O)Nc1ccc([N+](=O)[O-])cc1 [acryloyl AN-10],,82,significant antiinflammatory activity,none of the six compounds being tested cause any noticeable inflammation,
CCCCc1ccc(O)c(C(=O)Nc2cccc(C(F)(F)F)c2)c1 [S-4-F],,70,significant antiinflammatory activity,none of the six compounds being tested cause any noticeable inflammation,
CCCCCCCC(=O)c1ccc(O)c(C(=O)Nc2ccc(C(F)(F)F)cc2)c1 [APCF3-8],effective anti-inflammatories,,,,
COc1ccc2c(c1)c(CC(=O)O)c(C)n2C(=O)c1ccc(Cl)cc1 [indomethacin],,,,,reduction of inflammation (reference anti-inflammatories) [2]: reduction of inflammation
CCCCCCCCCC(=O)c1ccc(O)c(C(=O)Nc2ccc([N+](=O)[O-])cc2)c1 [AN-10],effective anti-inflammatories,81,significant antiinflammatory activity,none of the six compounds being tested cause any noticeable inflammation,"LD50 [4]: greater than 2000 mg./kg.; Reduction in Edema (%), Study A ([3]; Study A, 1.5 micromole per ear, 1/2 hour after A-23187 (4 nmole), sacrificed at 4 hours, ear weights): 55%"
